Consider 12 compounds from patent publication US10590130B2, “Chemical compounds” (AstraZeneca AB, priority 2016, dated 2020).

Each structure is given as a SMILES string.

One series can be described thus: log D (shake flask, octanol/aqueous buffer). The class given is physicochemical. Particulars: 1-octanol/aqueous buffer. From the text: Physical Properties log D
The lipophilicity of a drug is an important physical property which may influence many biological and metabolic properties of a compound, for example the absorption, distribution, metabolism, excretion and toxicity profiles of a compound. The distribution coefficient between 1-octanol and aqueous buffer, Log DO/W, at pH 7.4, is the most commonly used measurement of the lipophilicity of a compound. The current method for measurement of Log DO/W is based on the traditional shake flask technique, but with the modification of measuring compounds in mixtures of ten at a time using UPLC with quantitative mass spectrometry (MS) as a method to measure the relative octanol and aqueous concentrations. […] An additional QC sample Caffeine, with low Log D, are used and randomly placed in all runs. The method has been thoroughly validated against the previous shake flask methodologies.
For the compound `COC[C@](C)(F)CN1[C@H](c2ccc(OC3CN(CCCF)C3)cc2OC)c2ccc3[nH]ncc3c2C[C@H]1C` (single isomer, unassigned) [Example 13], the “LogD pH 7.4” value is listed as 4.

The next series can be described thus: Human hepatocyte assay (metabolic stability). The format is in vitro ADME. The conditions noted are these: human hepatocytes, in vitro intrinsic clearance. How it is done:
The metabolic stability of compounds in human hepatocytes was assessed using the following protocol: • 1. Prepare 10 mM stock solutions of compound and control compounds in appropriate solvent (DMSO). Place incubation medium (L-15 Medium) in a 37° C. water bath, and allow warming for at least 15 minutes prior to use. • 2. Add 80 μL of acetonitrile to each well of the 96-well deep well plate (quenching plate). • 3. In a new 96-well plate, dilute the 10 mM test compounds and the control compounds to 100 μM by combining 198 μL of acetonitrile and 2 μL of 10 mM stock. • 4. Remove a vial of cryopreserved (less than −150° C.) human hepatocytes (LiverPool™ 10 Donor Human hepatocytes obtained from Celsis IVT. Chicago, Ill. (Product No. S01205)) from storage, ensuring that vials remain at cryogenic temperatures until thawing process ensues. As quickly as possible, thaw the cells by placing the vial in a 37° C. water bath and gently shaking the vials. Vials should remain in water bath until all ice crystals have dissolved and are no longer visible. After thawing is complete, spray vial with 70% ethanol, transfer the vial to a bio-safety cabinet. • 5. Open the vial and pour the contents into the 50 mL conical tube containing thawing medium. Place the 50 mL conical tube into a centrifuge and spin at 100 g for 10 minutes. […] Using Cellometer® Vision, count cells and determine the viable cell density. Cells with poor viability (<80% viability) are not acceptable for use. […] Transfer 247.5 μL of hepatocytes into each well of a 96-well cell culture plate. Place the plate on Eppendorf Thermomixer Comfort plate shaker to allow the hepatocytes to warm for 10 minutes. • 8. Add 2.5 μL of 100 μM test compound or control compounds into an incubation well containing cells, mix to achieve a homogenous suspension at 0.5 min, which when achieved, will define the 0.5 min time point. At the 0.5 min time, transfer 20 μL of incubated mixture to wells in a “Quenching plate” followed by vortexing. • 9. Incubate the plate at 37° C. at 900 rpm on an Eppendorf Thermomixer Comfort plate shaker. […] Centrifuge the quenching plates for 20 minutes at 4,000 rpm. 4 different compounds are pooled into one cassette and used for LC/MS/MS analysis.
All calculations were carried out using Microsoft Excel. Peak areas were determined from extracted ion chromatograms. In vitro intrinsic clearance (in vitro Clint, in […]) of parent compound was determined by regression analysis of the Ln percent parent disappearance vs. time curve.
V=incubation volume (0.25 mL);
N=number of hepatocytes per well (0.25×10^6 cells).
In turn, `C[C@@H]1Cc2c(ccc3[nH]ncc23)[C@@H](c2ncc(NC3CN(CCCF)C3)cc2F)N1CC1(F)CC1` [Example 18, 5-fluoro-6-((6S,8R)-7-((1-fluorocyclopropyl)methyl)-8-methyl-6,7,8,9-tetrahydro-3H-pyrazolo[4,3-f]isoquinolin-6-yl)-N-(1-(3-fluoropropyl)azetidin-3-yl)pyridin-3-amine] had a Clint of 3 μL/min/10^6 cells.

In turn, `C[C@@H]1Cc2c(ccc3[nH]ncc23)[C@@H](c2c(F)cc(NC3CN(CCCF)C3)cc2F)N1CC1(F)CC1` [Example 11, N-(3,5-difluoro-4-((6S,8R)-7-((1-fluorocyclopropyl)methyl)-8-methyl-6,7,8,9-tetrahydro-3H-pyrazolo[4,3-f]isoquinolin-6-yl)phenyl)-1-(3-fluoropropyl)azetidin-3-amine] had a Clint of 7 μL/min/10^6 cells.

Take `C[C@@H]1Cc2c(ccc3[nH]ncc23)[C@@H](c2ccc(NC3CN(CCCF)C3)cn2)N1CC1(F)CC1` [Example 3, 6-((6S,8R)-7-((l-fluorocyclopropyl)methyl)-8-methyl-6,7,8,9-tetrahydro-3H-pyrazolo[4,3-f]isoquinolin-6-yl)-N-(1-(3-fluoropropyl)azetidin-3-yl)pyridin-3-amine]: the Clint is given as 5 μL/min/10^6 cells.

In turn, `COCC(F)(F)CN1[C@H](c2ccc(NC3CN(CCCF)C3)cn2)c2ccc3[nH]ncc3c2C[C@H]1C` [Example 2, 6-((6S,8R)-7-(2,2-difluoro-3-methoxypropyl)-8-methyl-6,7,8,9-tetrahydro-3H-pyrazolo[4,3-f]isoquinolin-6-yl)-N-(1-(3-fluoropropyl)azetidin-3-yl)pyridin-3-amine] registered a Clint of 6 μL/min/10^6 cells.

As to `C[C@@H]1Cc2c(ccc3[nH]ncc23)[C@@H](c2ccc(NC3CN(CCCF)C3)cc2)N1CC(F)F` [Example 48, N-(4-((6R,8R)-7-(2,2-difluoroethyl)-8-methyl-6,7,8,9-tetrahydro-3H-pyrazolo[4,3-f]isoquinolin-6-yl)phenyl)-1-(3-fluoropropyl)azetidin-3-amine], the Clint is recorded as 4 μL/min/10^6 cells.

Regarding `C[C@@H]1Cc2c(ccc3[nH]ncc23)[C@@H](c2ccc(NC3CN(CCCF)C3)cn2)N1CC(F)F` [Example 25, 6-((6S,8R)-7-(2,2-difluoroethyl)-8-methyl-6,7,8,9-tetrahydro-3H-pyrazolo[4,3-f]isoquinolin-6-yl)-N-(1-(3-fluoropropyl)azetidin-3-yl)pyridin-3-amine], the Clint is listed as 5 μL/min/10^6 cells.

Consider `COc1cc(NC2CN(CCCF)C2)ccc1[C@@H]1c2ccc3[nH]ncc3c2C[C@@H](C)N1CC(C)(F)F` [Example 19, N-(4-((6S,8R)-7-(2,2-difluoropropyl)-8-methyl-6,7,8,9-tetrahydro-3H-pyrazolo[4,3-f]isoquinolin-6-yl)-3-methoxyphenyl)-1-(3-fluoropropyl)azetidin-3-amine], for which the Clint is reported as 5 μL/min/10^6 cells.

In turn, `COCC(F)(F)CN1[C@H](c2ccc(NC3CN(CCCF)C3)cc2OC)c2ccc3[nH]ncc3c2C[C@H]1C` [Example 1, N-(4-((6S,8R)-7-(2,2-difluoro-3-methoxypropyl)-8-methyl-6,7,8,9-tetrahydro-3H-pyrazolo[4,3-f]isoquinolin-6-yl)-3-methoxyphenyl)-1-(3-fluoropropyl)azetidin-3-amine] came in with a Clint of 11 μL/min/10^6 cells.

`COc1cc(NC2CN(CCCF)C2)ccc1[C@@H]1c2ccc3[nH]ncc3c2C[C@@H](C)N1CC1(F)CC1` [Example 6, N-(4-((6S,8R)-7-((l-fluorocyclopropyl)methyl)-8-methyl-6,7,8,9-tetrahydro-3H-pyrazolo[4,3-f]isoquinolin-6-yl)-3-methoxyphenyl)-1-(3-fluoropropyl)azetidin-3-amine] gave a Clint of 2 μL/min/10^6 cells.

In turn, `COc1cc(NC2CN(CCCF)C2)ccc1[C@@H]1c2ccc3[nH]ncc3c2C[C@@H](C)N1CC(F)(F)F` [Example 28, 1-(3-fluoropropyl)-N-(3-methoxy-4-((6S,8R)-8-methyl-7-(2,2,2-trifluoroethyl)-6,7,8,9-tetrahydro-3H-pyrazolo[4,3-f]isoquinolin-6-yl)phenyl)azetidin-3-amine] registered a Clint of 5 μL/min/10^6 cells.

On to `COc1cc(NC2CN(CCCF)C2)ccc1[C@@H]1c2ccc3[nH]ncc3c2C[C@@H](C)N1CC(F)F` [Example 21, N-(4-((6S,8R)-7-(2,2-difluoroethyl)-8-methyl-6,7,8,9-tetrahydro-3H-pyrazolo[4,3-f]isoquinolin-6-yl)-3-methoxyphenyl)-1-(3-fluoropropyl)azetidin-3-amine], for which the Clint stood at 6 μL/min/10^6 cells.
